Assay results as given in ChEMBL document CHEMBL4229416, “Identification of PKMYT1 inhibitors by screening the GSK published protein kinase inhibitor set I and II” (Bioorg Med Chem, 2018).
Calls of active or inactive are those of the source. The rule behind the calls is not given here.

How the values were obtained:
[1] = molecular target: T1, Membrane-associated tyrosine- and threonine-specific cdc2-inhibitory kinase (Homo sapiens, UniProt Q99640); assay: Inhibition of human full length PKMYT1 expressed in HEK293 cells using EFS (247 to 259 residues) as substrate after 1 hr by fluorescence polarization immunoasay
T1 sequence (Q99640 whole entry): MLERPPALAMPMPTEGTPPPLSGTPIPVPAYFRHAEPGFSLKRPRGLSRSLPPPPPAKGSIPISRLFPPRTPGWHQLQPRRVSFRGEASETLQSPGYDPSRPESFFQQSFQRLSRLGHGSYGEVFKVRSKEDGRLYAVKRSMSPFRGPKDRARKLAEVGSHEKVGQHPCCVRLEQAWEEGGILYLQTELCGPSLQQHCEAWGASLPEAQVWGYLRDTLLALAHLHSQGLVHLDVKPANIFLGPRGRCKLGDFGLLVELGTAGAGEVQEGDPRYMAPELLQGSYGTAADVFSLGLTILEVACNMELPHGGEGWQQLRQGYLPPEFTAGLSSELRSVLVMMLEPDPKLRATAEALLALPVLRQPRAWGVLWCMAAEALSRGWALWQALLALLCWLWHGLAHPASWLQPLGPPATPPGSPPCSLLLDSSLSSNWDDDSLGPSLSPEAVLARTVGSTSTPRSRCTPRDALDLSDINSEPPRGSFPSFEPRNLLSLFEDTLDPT

[2] = molecular target: T1, Membrane-associated tyrosine- and threonine-specific cdc2-inhibitory kinase; assay: Inhibition of N-[3',6'-dihydroxy-3-oxo-3H-spiro(2-benzofuran-1,9'-xanthen)-5-yl]-N'-[2-(4-{4-[N-(2-chloro-6-methylphenyl)-5-carboxamido]-thiazol-2-yl})-amino-2-methyl-pyrimid-6-yl)piperazinyl]-ethyl]thiourea binding to human PKMYT1 kinase doamin expressed in Escherichia coli BL21 after 120 mins by fluorescence polarization asay
[3] = molecular target: T2, Membrane-associated tyrosine- and threonine-specific cdc2-inhibitory kinase (Homo sapiens) (UniProt Q99640); assay: Inhibition of human full length PKMYT1 expressed in HEK293 cells assessed as decrease in GST-tagged Cdk1 phosphorylation at tyrosine 15 at 5 to 20 uM after 1 hr by Western blot method relative to control; assay type: cell-based
T2 sequence (whole entry): T1 sequence (Q99640 whole entry)

[4] = molecular target: T2, Membrane-associated tyrosine- and threonine-specific cdc2-inhibitory kinase (Homo sapiens); assay: Inhibition of PKMYT1 in human HT29 cells assessed as decrease in Cdk1 phosphorylation at tyrosine 15 at 4 uM after 24 hrs by Western blot method; assay type: cell-based

SMILES | IC50 [1] [nM] | Ki [1] [nM] | IC50 [2] [nM] | Ki [2] [nM] | inhibition [3] | inhibition [4]
Cc1cc(O)cc(C)c1/C=C/c1cncc(C(N)=O)c1 [GW435821X] | 14500 | 1380 | 876 | 522 | Active | 
NC(=O)c1cccc(Nc2nccc(Nc3cccc4[nH]ncc34)n2)c1 [GW782612X] |  |  |  |  | Active | 
O=C(Nc1cccc(-c2nn3ncccc3c2-c2ccnc(Nc3cccnc3)n2)c1)c1c(F)cccc1F | 7560 | 720 | 18900 | 14700 | Active | 
NC(=O)c1cc(-c2ccncc2)cc(-c2ccccc2)c1N [GSK-625137A] | 58000 | 5520 | 11400 | 5810 | Active | 
COc1cc(Nc2ncc(C#N)c(Nc3ccccc3C(N)=O)n2)ccc1N1CCN(C)CC1 |  |  |  |  | Active | Active
COc1cc2ncnc(Nc3cccc(Cl)c3)c2cc1OC [TYRPHOSTIN AG-1478] | 19600 | 1870 | 55000 | 26200 |  | 

The next lines start with the values.

IC50 [1] [nM] | Ki [1] [nM] | IC50 [2] [nM] | Ki [2] [nM] | inhibition [3] | inhibition [4] | SMILES
8 | 0.8 | 31.1 | 2 |  |  | CCN(CC)CCOc1ccc(Nc2ncc3cc(-c4c(Cl)cccc4Cl)c(=O)n(C)c3n2)cc1 [PD-0166285]
706 | 67.2 | 332 | 201 | Active |  | Oc1cccc(Nc2ccnc3cc(-c4ccncc4)ccc23)c1
270 | 25.7 | 352 | 180 | Active | Active | CNC(=O)c1ccccc1Nc1nc(Nc2ccc(N3CCOCC3)cc2)ncc1Cl
109 | 10.4 | 2700 | 13500 |  |  | Cc1cc(Nc2ncc3cc(-c4c(Cl)cccc4Cl)c(=O)n(C)c3n2)ccc1F
543 | 51.7 | 9430 | 6150 | Active | Active | Cc1cc(O)cc(Nc2ccnc3cc(-c4ccccn4)ccc23)c1
115 | 10.9 | 151 | 104 | Active | Active | CNC(=O)c1ccccc1Nc1nc(Nc2cccc(CS(C)(=O)=O)c2)ncc1C
24 | 2.3 | 55 | 8.1 |  |  | Cn1c(=O)c(-c2c(Cl)cccc2Cl)cc2cnc(Nc3ccc(N4CCOCC4)cc3)nc21
